Results as given in patent US11427783B2, “Perfuming compositions” (Firmenich SA, priority 2016, dated 2022).

Test: Volatility of perfuming compounds in air
Assay type: physicochemical
[1] = Table 10, perfuming compounds having a woody note
[2] = Table 5, perfuming compounds having a green note
[3] = Table 6, perfuming compounds having a fruity note
[4] = Table 8, perfuming compounds having a sweet note
[5] = Table 9, perfuming compounds having a gourmand note

| Molecule | Volatility (μg/l air) [1] | Volatility [2] | further results |
| --- | --- | --- | --- |
| CC1C(C)(C)C2=C(C(=O)CCC2)C1(C)C (centres unmarked) | 29.81 μg/l air |  |  |
| CC1CC(C)(C)OC(Cc2ccccc2)O1 (centres unmarked) |  | 29.99 μg/l air |  |
| COc1nccnc1CCCC(C)C |  | 195.24 μg/l air |  |
| CCC(C)C1(C)COC(C2CCC(C)=CC2C)OC1 (centres unmarked) | 3.82 μg/l air |  |  |
| CC(=O)OCCC1=CCC2CC1C2(C)C (centres unmarked) | 60.02 μg/l air |  |  |
| CC1CC(C)(c2ccccc2)OC(C)O1 (centres unmarked) |  |  | Volatility (μg/l air) [3]: 113.83 μg/l air |
| CC1(C)CCC[C@@]2(C)[C@H]1CC[C@@]1(C)OCC[C@@H]21 | 9.23 μg/l air |  |  |
| COC(OC)C(C)(C)CC=C(C)C | 1311.32 μg/l air |  |  |
| CC(C)=CC1CC(C)CCO1 (centres unmarked) |  | 2483.93 μg/l air |  |
| CC(=O)O[C@@H]1CC2CC[C@]1(C)C2(C)C | 735.37 μg/l air |  |  |
| CC1=CC[C@H](C(C)CC2CCCC2=O)CC1 (some centres unmarked) |  |  | Volatility (μg/l air) [3]: 2.05 μg/l air; Volatility (μg/l air) [4]: 2.05 μg/l air; Volatility (μg/l air) [5]: 2.05 μg/l air |
| CC1(CO)CC1CC1CC2CC2(C)C1(C)C (centres unmarked) | 1.74 μg/l air |  |  |
| C=C/C=C/C=C\CCCCC |  | 1247.28 μg/l air |  |
| Cc1ccc(OCC=O)cc1 |  | 89.41 μg/l air |  |
| CC1=CCC(/C=C/C(C)C(C)O)C1(C)C (centres unmarked) | 20.41 μg/l air |  |  |
| CC(C)=CCC/C(C)=C/CO |  |  | Volatility (Table 7, citrus note): 89.88 μg/l air |
| CC(C)=CCC/C(C)=C\CO |  |  | Volatility (Table 7, citrus note): 86.02 μg/l air |
| C[C@@H]1CC[C@H]2C(C)(C)[C@H]3C[C@@]12C[C@@H]1OC(C)(C)O[C@@]13C | 0.00 μg/l air |  |  |
| C[C@H]1[C@@H]2C[C@H](C[C@@]13C=CC(=O)CC3)C2(C)C | 4.14 μg/l air |  | Volatility (μg/l air) [3]: 4.14 μg/l air |
| C=C(C)[C@@H]1CC=C(CO)CC1 |  | 33.78 μg/l air |  |
| 3,7-DIMETHYL-2,6-NONADIENENITRILE (A) + 3,7-DIMETHYL-3,6-NONADIENENITRILE (B) |  | 78.89 μg/l air |  |

| Molecule | Volatility (μg/l air) [1] | Volatility [2] | further results |
| --- | --- | --- | --- |
| CCC(O)COC1CCCCC1C(C)(C)C (racemic) | 205.05 μg/l air |  |  |
| CCCC(O)CCC1C(C)CCC(C)C1(C)C (racemic) | 3.42 μg/l air |  |  |
| C=C1C2CCC(C)(OCC)C1CCC2(C)C (racemic) | 135.00 μg/l air |  |  |
| CCC(=CCC1CC=C(C)C1(C)C)CO (racemic) | 3.69 μg/l air |  |  |
| CCC(C)(O)CCCC(C)C (racemic) |  | 421.15 μg/l air |  |
| CC1OCCC12NCCS2 (racemic) |  |  | Volatility (μg/l air) [4]: 52.47 μg/l air |
| COC(C)(C)CCCC(C)C(C)O (racemic) | 35.54 μg/l air |  |  |
| COC(=O)C1C(C)=CCCC1(C)C (racemic) |  | 2010.91 μg/l air |  |
| CC1CCCC2(C)CCCCC12O (racemic) |  | 330.48 μg/l air |  |
| CC(=O)/C(C)=C(/C)C(C)C(C)(C)C (racemic) | 659.22 μg/l air |  |  |
| COC(=O)OC1CC/C=C\CCC1 (racemic) |  | 278.83 μg/l air |  |
| C=C1CCCC(C)(C)C1C(=O)/C=C/C (racemic) |  |  | Volatility (μg/l air) [4]: 152.99 μg/l air; Volatility (μg/l air) [5]: 152.99 μg/l air |
| CC(=O)/C(C)=C/C1C(C)=CCCC1(C)C (racemic) | 106.28 μg/l air |  | Volatility (μg/l air) [3]: 36.33 μg/l air |
| CCCC(S)CCOC (racemic) [(+−)-1-METHOXY-3-HEXANETHIOL] |  | 2534.77 μg/l air |  |
| CCCCCC1CCCC1O (racemic) [(+−)-2-PENTYL-1-CYCLOPENTANOL] |  |  | Volatility (μg/l air) [4]: 97.79 μg/l air |
| CCC(C)C(=O)OCCc1ccccc1 (racemic) [(+−)-2-PHENYLETHYL 2-METHYLBUTANOATE] |  |  | Volatility (μg/l air) [3]: 37.73 μg/l air |
| CC(CC=O)CC(C)(C)C (racemic) [(+−)-3,5,5-TRIMETHYLHEXANAL] |  | 12045.92 μg/l air |  |
| CC(CC=O)c1ccccc1 (racemic) [(+−)-3-PHENYLBUTANAL] |  | 227.83 μg/l air |  |
| CCCCCCC1CCC(=O)O1 (racemic) [(+−)-4-DECANOLIDE] |  |  | Volatility (μg/l air) [3]: 10.49 μg/l air; Volatility (μg/l air) [4]: 10.49 μg/l air; Volatility (μg/l air) [5]: 10.49 μg/l air |
| CCCC1CCC(=O)O1 (racemic) [(+−)-4-HEPTANOLIDE] |  |  | Volatility (μg/l air) [4]: 295.34 μg/l air |
| CCCCCC1CCC(=O)O1 (racemic) [(+−)-4-NONANOLIDE] |  |  | Volatility (μg/l air) [3]: 27.42 μg/l air; Volatility (μg/l air) [5]: 27.42 μg/l air |
